Measurements taken from patent publication US20160046582A1 (Teva Pharmaceutical Industries Ltd., priority 2014, published 2016).
Where two headings read alike, the source gives them in different places.

What was measured:
[1] = Solubility in water (description of drug substance); format: physicochemical
From the text: The solubility terms are defined below, in accordance with the United States Pharmacopoeia XXV.

[2] = cited from earlier work
[3] = In vitro AMES test (CRL studies No. 962723 and No. 963892); format: cell-based; conditions: MCQ: pre-incubation method, CRL study No. 962723, MCQME: CRL study No. 963892
[4] = Particle size distribution by Malvern laser diffraction (Mastersizer S); format: physicochemical; conditions: for PSD by Malvern D(0.9) / PSD by Malvern d(0.1) / PSD by Malvern d(0.5): modified pilot scale, 2.5 kg batch
Method: The particle size distributions were measured by Malvern Laser Diffraction, using the Mastersizer S model. Laser diffraction relies on the fact that diffraction angle of light is inversely proportional to particle size. Properties of particles are measured and interpreted as measurements of a sphere (a sphere being the only shape that can be described by one unique number). In addition, laser diffraction calculates a particle size distribution based around volume terms, thus eliminating particle count from the determination of particle size. The Mastersizer S model measures particles using a single technique and a single range setting.
D(0.1) is the particle size, in microns, below which 10% by volume distribution of the population is found. D(0.5) is the particle size, in microns, below which 50% by volume distribution of the population is found. D(0.9) is the particle size, in microns, below which 90% by volume distribution of the population is found.

Bulk density of powder = format: physicochemical; conditions: production scale
Method: • 1. Mix powder; • 2. Tare a 50 ml empty cylinder on a 0.01 g sensitivity balance; • 3. Transfer the powder, without compacting, to the cylinder being held at approximately a 45 degree angle to achieve an untapped apparent volume of 40 to 50 ml. • 4. Bring the cylinder containing the sample to a vertical position by a sharp move in order to level the volume for reading. • 5. Read the apparent volume (Va) to the nearest graduated unit; • 6. Weigh the cylinder with sample (the balance gives sample weight M); • 7. Calculate bulk density in g/ml according to the following equation: BD=M/Va; • 8. Perform steps 1-7 again and report the average data of duplicates.

[5] = In vivo MN (Covance study No. 8246631)
[6] = Tapped density of powder (Quantachrome Dual Autotap, 1250 taps); format: physicochemical; conditions: production scale
From the text: • 1. Put the same cylinder used to calculate Bulk Density in a Quantachrome Dual Autotap instrument; • 2. Perform 1250 taps; • 3. Read the tapped volume (Vf) to the nearest graduated unit; • 4. Calculate the tapped density in g/ml according to the following equation: TD=M/Vf; • 5. Perform steps 1-4 again and report the average data of duplicates.

Hygroscopicity = format: physicochemical; conditions: exposure to air
[7] = cited from earlier work; remark: listed apart in the source
[8] = prior art examples; cited from earlier work
[9] = system: active MRI lesions in relapsing MS; conditions: cited from earlier work
[10] = system: acute experimental autoimmune encephalomyelitis (aEAE) model; conditions: in vivo; cited from earlier work
[11] = Chemical stability observed on handling or purification; format: physicochemical; conditions: most organic solvents and aqueous acidic medium
[12] = laboratory scale recrystallization, 25 g
[13] = laboratory scale, 25 g batch, prior art
[14] = starting material of the recrystallization

CCN(C(=O)c1c([O-])c2c(Cl)cccc2n(C)c1=O)c1ccccc1.[Na+] [Laquinimod sodium]
solubility in water [1]: freely soluble | oral bioavailability [2]: high

Cn1c(=O)cc(O)c2c(Cl)cccc21 [MCQ, 5-chloro-4-hydroxy-1-methylquinolin-2(1H)-one]
AMES test genotoxic activity [3]: AMES data negative in the pre-incubation

CCN(C(=O)c1c([O-])c2c(Cl)cccc2n(C)c1=O)c1ccccc1.[Na+] [Batch D]
PSD D(0.5) ([4]; production scale): 14.7 μm | PSD D(0.9) ([4]; production scale): 33.6 μm | Bulk Density (Bulk density of powder): 0.288 g/mL

COC(=O)c1c(O)c2c(Cl)cccc2n(C)c1=O [MCQME, methyl 5-chloro-4-hydroxy-1-methyl-2-oxo-1,2-dihydroquinoline-3-carboxylate]
AMES test genotoxic activity [3]: Weak genotoxic activity in the in vitro | in vivo MN [5]: negative in the in vivo MN

CCN(C(=O)c1c([O-])c2c(Cl)cccc2n(C)c1=O)c1ccccc1.[Na+] [Batch E]
PSD D(0.1) ([4]; production scale): 2.5 μm | PSD D(0.5) ([4]; production scale): 9.5 μm | PSD D(0.9) ([4]; production scale): 21.0 μm | Bulk Density (Bulk density of powder): 0.245 g/mL | Tapped Density [6]: 0.460 g/mL

CCN(C(=O)c1c([O-])c2c(Cl)cccc2n(C)c1=O)c1ccccc1.[Na+] [Laboratory Scale Batch A]
PSD D(0.1) [4, 12]: 2.3 μm | PSD D(0.5) [4, 12]: 10.8 μm | PSD D(0.9) [4, 12]: 32.7 μm

CCN(C(=O)c1c([O-])c2c(Cl)cccc2n(C)c1=O)c1ccccc1.[Na+] [Laboratory Scale Batch B]
PSD D(0.1) [4, 12]: 2.6 μm | PSD D(0.5) [4, 12]: 12.4 μm | PSD D(0.9) [4, 12]: 34.3 μm

CCN(C(=O)c1c(O)c2c(N(C)C[C@H](O)[C@@H](O)[C@H](O)[C@H](O)CO)cccc2n(C)c1=O)c1ccccc1 (stereo in doubt) [MEG-LAQ, N-ethyl-4-hydroxy-1-methyl-5-(methyl(2,3,4,5,6-pentahydroxyhexyl)amino)-2-oxo-N-phenyl-1,2-dihydroquinoline-3-carboxamide]
hygroscopicity (Hygroscopicity): high hygroscopicity

CCN(C(=O)c1c([O-])c2c(Cl)cccc2n(C)c1=O)c1ccccc1.[Na+] [Pilot Scale Batch B]
PSD by Malvern D(0.9) [4]: 33.9 um | PSD by Malvern d(0.1) [4]: 4.1 um | PSD by Malvern d(0.5) [4]: 13.5 um

CCN(C(=O)c1c([O-])c2c(Cl)cccc2n(C)c1=O)c1ccccc1.[Na+] [Example 15 from U.S. Pat. No. 7,884,208]
PSD by Malvern D(0.9) [7, 13]: 51.8 um | PSD by Malvern d(0.1) [7, 13]: 6.1 um | PSD by Malvern d(0.5) [7, 13]: 21.2 um

CCN(C(=O)c1c([O-])c2c(Cl)cccc2n(C)c1=O)c1ccccc1.[Na+] [Example 14 of U.S. Pat. No. 7,884,208]
size of 10% or more of the total amount by volume of the particles ([7]; prior art example): less than 5 microns | Tapped Density (in words) [8]: undesired

CCN(C(=O)c1c([O-])c2c(Cl)cccc2n(C)c1=O)c1ccccc1.[Na+] [Pilot Scale Batch A]
PSD by Malvern D(0.9) [4]: 33.8 um | PSD by Malvern d(0.1) [4]: 3.3 um | PSD by Malvern d(0.5) [4]: 12.9 um

CCN(C(=O)c1c(O)c2c(Cl)cccc2n(C)c1=O)c1ccccc1 [Laquinimod, N-ethyl-N-phenyl-1,2,-dihydro-4-hydroxy-5-chloro-1-methyl-2-oxoquinoline-3-carboxamide]
development of active MRI lesions [9]: can reduce development of active MRI lesions | efficacy in aEAE model [10]: effective

CCN(C(=O)c1c(O)c2c(O)cccc2n(C)c1=O)c1ccccc1 [Batch 5-HLAQ, N-ethyl-4,5-dihydroxy-1-methyl-2-oxo-N-phenyl-1,2-dihydroquinoline-3-carboxamide]
stability in solvents [11]: unstable

CCN(C(=O)c1c([O-])c2c(Cl)cccc2n(C)c1=O)c1ccccc1.[Na+] [crude laquinimod sodium]
particle size d(0.1) [4, 14]: 1-2 μ | particle size d(0.5) [4, 14]: 6-11 μ | particle size d(0.9) [4, 14]: 20-35 μ

CCN(C(=O)c1c([O-])c2c(Cl)cccc2n(C)c1=O)c1ccccc1.[Na+] [Example 13 of U.S. Pat. No. 7,884,208]
Tapped Density (in words) [8]: high

CCN(C(=O)c1c([O-])c2c(Cl)cccc2n(C)c1=O)c1ccccc1.[Na+] [Batch C]
PSD D(0.1) ([4]; production scale): 4.1 μm | PSD D(0.5) ([4]; production scale): 14.0 μm | PSD D(0.9) ([4]; production scale): 32.0 μm | Bulk Density (Bulk density of powder): 0.308 g/mL | Tapped Density [6]: 0.609 g/mL
